The values that follow come from article PMC7179302, “Lead Optimization of Dehydroemetine for Repositioned Use in Malaria” (Antimicrobial Agents and Chemotherapy, 2020).

Each structure is given as a SMILES string. Counter-ions that a name gives are not always drawn.

One experiment relates to P. falciparum strain Dd2. Put plainly: microbe, parasite or virus in culture. Type of experiment: cell-based. The following applies: Plasmodium falciparum, DD2, read-out: IC50 (μM) Dd2. The method, then: (§1) The cross-resistance assay used relies on the parasites’ incorporation of labeled 3H-hypoxanthine, which is proportional to P. falciparum growth. In vitro cross-resistance of the compounds is measured as the ratio between the IC50 for the tested P. falciparum strain and the IC50 for strain 3D7A. Every replicate from a multidrug-resistant (MDR) strain involved a simultaneous determination using a 3D7A replicate to avoid any artifact linked to experimental conditions.
(§2) The three strains used for the cross-resistance assay were 3D7A, Dd2, and W2, based on their resistance profiles; the assay was carried out by GSK, Tres Cantos. Strain 3D7A is chloroquine sensitive, strain Dd2 is resistant to chloroquine, mefloquine, and pyrimethamine ([57]), and strain W2 is resistant to chloroquine, quinine, pyrimethamine, cycloguanil, and sulfadoxine (from the Malaria Research and Reference Reagent Resource Center [MR4]) ([58]). A culture of red blood cells (RBCs) parasitized by the corresponding strain (0.5% parasitemia, 2% hematocrit) in RPMI 1640, […], and 5 μM hypoxanthine was exposed to 9 dilutions (3-fold serial dilutions) of the compound starting at 5 μM. One hundred microliters of culture volume was plated in 96-well flat-bottom microtiter plates with 0.5 μl drug (200× stock in DMSO). Plates were incubated for 24 h at 37°C, 5% CO2, 5% O2, 90% N2. Next, 3H-hypoxanthine was added and plates were incubated for another 24-h period. After that, parasites were harvested on a glass fiber filter using a TomTec cell harvester 96. Filters were dried, and melt-on scintillator sheets were used to determine the incorporation of 3H-hypoxanthine. Radioactivity was measured using a MicroBeta counter. […] IC50 values were determined using the Grafit 7 program ([41]).

A further experiment concerns P. falciparum strain W2. Description: microbe, parasite or virus in culture. Type of experiment: cell-based. The following applies: Plasmodium falciparum, W2, read-out: IC50 (μM) W2. The method, then:
as §1, §2

The test system of experiment [1] is mitochondrial membrane potential of P. falciparum strain K1 trophozoites. Put plainly: Rhodamine 123 staining for mitochondrial membrane potential, flow cytometry. The experiment is classed as cell-based, Plasmodium falciparum. The following applies: deviation from infected blood without drugs. The method, then: Changes in mitochondrial membrane potential were measured using rhodamine 123 (excitation wavelength, 511 nm; emission wavelength, 534 nm), a membrane-permeating cationic fluorescent dye ([49]), which accumulates by electrostatic attraction in the mitochondria because of its negative transmembrane potential. A change in the dye’s concentration in the mitochondria is caused by a depolarization event and can be visualized as a shift in the fluorescence intensity of rhodamine 123 ([50]). Draq5 (excitation wavelength, 647 nm; emission wavelength, >665 nm) is a far-red fluorescent DNA dye which is cell permeating and was used to distinguish the parasites in flow cytometry in the allophycocyanin (APC)-Cy7-A channel. SYBR green was not preferred for this experiment as it emits in the same channel as rhodamine 123 and would result in the overlap of emission signals. Fluorescence microscopy was used to visualize the localization of rhodamine 123 within the cytoplasm of the parasites (Fig. 9).
A decrease in fluorescence intensity measured in the fluorescein isothiocyanate (FITC)-A channel indicates a loss of mitochondrial membrane potential. Atovaquone, a known mitochondrial inhibitor, was used as a control.
Compounds were then washed away by centrifuging the cultures, and a pellet was prepared for each drug concentration. Pellets were then incubated with 1 ml of 200 nM rhodamine 123 for 1 h, followed by a further incubation with 100 μl of 5 μM Draq5 for 20 min. After a wash with PBS, the experiment was read with a flow cytometer on the FITC channel. Loss of mitochondrial membrane potential was indicated by a decrease in fluorescence intensity.
A general note: A flow cytometer gives signals particle by particle.

Take `CCC1=C(C[C@H]2NCCc3cc(OC)c(OC)cc32)C[C@H]2c3cc(OC)c(OC)cc3CCN2C1` [(−)-R,S-dehydroemetine, (S)-2-((R)-6,7-dimethoxy-1,2,3,4-tetrahydro-isoquinolin-1-ylmethyl)-3-ethyl-9,10-dimethoxy-1,6,7,11b-tetrahydro-4H-pyrido[2,1-a]isoquinoline * dihydrobromide]: the IC50 stood at 0.177 µM in the experiment with P. falciparum strain Dd2 and 0.168 µM in the experiment on P. falciparum strain W2. For the same molecule, the “Change in fluorescence intensity (FITC-A mean) of rhodamine 123” value in experiment [1] (at 10× IC50, 2 h) is on record as 32.98%; in experiment [1] (at IC50, 2 h) it was 26.76%.

A word on the IC50: it is the concentration at which inhibition is half-maximal.
